# According to patent US20100137358A1, “SOLIFENACIN COMPOSITIONS” (DR. REDDY'S LABORATORIES LTD., priority 1996, published 2010):
# Test: Storage stability of amorphous solifenacin succinate and premix compositions, purity and impurities by HPLC
# Assay type: physicochemical
# Conditions: triple laminated package, nitrogen atmosphere
# Procedure: The spray-dried product was packaged in a triple laminated package (two polyethylene layers covered with a layer of aluminium foil) containing a nitrogen atmosphere and samples were analyzed for impurity content at the time of packaging and after 7 days of storage at 0-5° C., using high-performance liquid chromatography (HPLC). The results are tabulated below:
# 6. The dried solid was packed in a double polyethylene bag with a silica desiccant pouch and the package was exposed to 0-5° C. and room temperature (RT) conditions for 25 days, then was analyzed by XRD and HPLC. The analytical data are given below:
# The solid prepared was packaged in a double polyethylene bag with a silica desiccant and exposed to 0-5° C. and room temperature (RT) conditions for 27 days, and then samples were analyzed by XRD and HPLC. The data are given below:
# The dried solid was packaged in a double polyethylene bag with a silica desiccant and exposed to 0-5° C. conditions for 16 days. A sample was then analyzed by XRD and HPLC, giving the following results:
# The solid prepared was packaged in a double polyethylene bag and exposed at 0-5° C. and at room temperature (RT) for 20 days. Samples were then analyzed by XRD and by HPLC, giving the data below:
# The solid products of Examples 6A and 6B, similarly packaged and stored under 0-5° C. and RT conditions for about 7 months, were analyzed and the data are given below: […]
smiles,measurement,setting,value
"O=C(O[C@H]1CN2CCC1CC2)N1CCc2ccccc2[C@@H]1c1ccccc1 [Example 2, Amorphous Solifenacin Succinate]",HSI (highest single impurity),7th day of storage at 0-5° C.,0.25 % of drug content
same,HSI (highest single impurity),"initial, at the time of packaging",0.03 % of drug content
